Experimental data published in patent EP4574818A1, “ONIUM SALT OF NITROGEN-CONTAINING HETEROARYL COMPOUND AND PEST CONTROL AGENT” (priority 2022, dated 2024).

Tests used:
Format in all cases: in vivo
[1] = test system: Mythimna separata; assay: Efficacy test against Mythimna separata (treated artificial feed); conditions: 1 µl of emulsion (I) (5% by mass active ingredient) mixed with 0.8 g artificial feed; second-instar larvae; 25°C; after five days
Experimental: (§1) 5 parts by mass of a compound of the present invention, 93.6 parts by mass of dimethylformamide, and 1.4 parts by mass of polyoxyethylene alkyl aryl ether were mixed and dissolved to obtain an emulsion (I) containing 5% by mass of the active ingredient.
0.8 g of commercially-available artificial feed (Insect LFS, manufactured by Nosan Corporation) and 1 µl of the emulsion (I) were mixed well, and then 0.2 g of the mixture per treated area was packed into plastic test containers (each having a capacity of 1.4 ml) as test feeds.
Two second-instar larvae of Mythimna separata were left per treated area, and then the test containers were sealed with plastic covers. The test containers were placed in a thermostatic chamber at 25°C, and, after five days had passed therefrom, the mortality and the feed intake were measured. The test was repeated twice.
In addition, the test was carried out under the same conditions as described above, except that the emulsion (II) was used instead of the emulsion (I), and evaluated as a solvent control area.

[2] = test system: Spodoptera litura; assay: Efficacy test against Spodoptera litura (cabbage leaf immersion); conditions: 144 h, 125 ppm by mass, cabbage leaf immersed 30 seconds, second-instar larvae, 25°C, humidity 60%, after six days, read-out: mortality of Spodoptera litura
Experimental: A cabbage leaf was immersed in the diluted solution for 30 seconds. The cabbage leaf was air-dried and then put in a petri dish, followed by leaving five second-instar larvae of Spodoptera litura therein. The petri dish was placed in a thermostatic chamber at a temperature of 25°C and a humidity of 60%. After six days had passed from leaving the larvae, life or death was assessed and the mortality was calculated. The test was repeated twice.

[3] = test system: Plutella xylostella; assay: Efficacy test against Plutella xylostella (cabbage leaf immersion); conditions: 72 h; 125 ppm by mass; cabbage leaf immersed 30 seconds; second-instar larvae of Plutella xylostella; 25°C, humidity 60%; after three days; read-out: mortality
Experimental: The emulsion (II) was diluted with water at the same dilution ratio as the diluted solution (I), thereby obtaining a diluted solution (II). A cabbage leaf was immersed in each of the diluted solutions for 30 seconds. Each cabbage leaf after immersion was air-dried and then put in a petri dish, followed by leaving five second-instar larvae of Plutella xylostella therein. The petri dishes were placed in a thermostatic chamber at a temperature of 25°C and a humidity of 60%. After three days had passed from leaving the larvae, life or death was assessed and the mortality was calculated. The test was repeated twice.

[4] = test system: Phyllotreta striolata; assay: Efficacy test against Phyllotreta striolata (sprayed bok-choy seedling); conditions: 168 h, 125 ppm by mass, sprayed to bok-choy seedling, adults, 25°C, humidity 65%, after seven days, read-out: mortality against the adults of Phyllotreta striolata
Experimental: as §1
The emulsion (I) was diluted with water such that the concentration of the compound of the present invention became 125 ppm by mass. The diluted solution was sprayed to a bok-choy seedling (at the 7th leafe stage) planted in a 3-sun pot. After air-dried, the bok-choy seedling was placed in a plastic cup, and ten adults of Phyllotreta striolata were left therein. The plastic cup was placed in a thermostatic chamber at a temperature of 25°C and a humidity of 65%. After seven days had passed from leaving the adults, life or death was assessed and the mortality was calculated. The test was repeated twice.

[5] = test system: Ctenocephalides felis; assay: Efficacy test against Ctenocephalides felis (thin film in glass vial); conditions: 96 h, 100 µL of 16 ppm by mass isopropanol solution dried as thin film in glass vial, adults, 25°C, after four days
Experimental: The compound of the present invention was dissolved in isopropanol to prepare a drug solution having a concentration of 16 ppm by mass. 100 µL of the drug solution was coated on the inner surface of the bottom of a glass vial container (φ […]), and then isopropanol was vaporized by air-drying to form a thin film of the compound of the present invention. In the vial container, four adults (a mixture of males and females) of cat flea (Ctenocephalides felis) were left. The lid was put on the vial container, and the vial container was placed in a thermostatic chamber at 25°C. After four days had passed from leaving the adults, life or death of Ctenocephalides felis was assessed and the mortality was calculated.

[6] = test system: Haemophysalis longicornis; assay: Efficacy test against Haemophysalis longicornis (thin film in glass test tube); conditions: 100 µL of 16 ppm by mass isopropanol solution dried as thin film in glass test tube; nymphs; 25°C; after four days; 5760 min
Experimental: The compound of the present invention was dissolved in isopropanol to prepare a drug solution having a concentration of 16 ppm by mass. 100 µL of the drug solution was coated on the inner surface of the bottom of a glass test tube (φ 12 mm), and then isopropanol was vaporized by air-drying to form a thin film of the compound of the present invention. In the test tube, four nymphs of Haemophysalis longicornis were left. The lid was put on the test tube, and the test tube was placed in a thermostatic chamber at 25°C. After four days had passed from leaving the nymphs, life or death of Haemophysalis longicornis was assessed and the mortality was calculated.

Row | SMILES | mortality of Mythimna separata or feed intake relative to the feed intake at the solvent control area [1] | mortality at 125 ppm [2] [%] | mortality at 125 ppm [3] [%] | mortality at 125 ppm [4] [%] | mortality at 16 ppm [5] [%] | mortality against Haemophysalis longicornis [6] [%]
1 | O=C([N-][n+]1cccc(F)c1)c1cc(Cl)nc(Oc2ccc(OC(F)(F)F)cc2)c1 [Compound 1] | 100% mortality of Mythimna separata or 10% or less of the feed intake | ≥ 80 | ≥ 80 | ≥ 80 | ≥ 80 | –
2 | O=C([N-][n+]1ccccc1)c1cc(Cl)nc(Oc2ccc(OC(F)(F)C(F)(F)F)cc2)c1 [Compound 3] | 100% mortality of Mythimna separata or 10% or less of the feed intake | ≥ 80 | ≥ 80 | ≥ 80 | – | –
3 | O=C([N-][n+]1cccc(F)c1)c1cc(Cl)nc(Oc2ccc(OC(F)(F)C(F)(F)F)cc2)c1 [Compound 7] | – | ≥ 80 | ≥ 80 | – | ≥ 80 | –
4 | CCn1c[n+]([N-]C(=O)c2cc(Cl)nc(Oc3ccc(OC(F)(F)C(F)(F)F)cc3)c2)cn1 [Compound 10] | – | ≥ 80 | ≥ 80 | ≥ 80 | ≥ 80 | –
5 | O=C([N-][n+]1ccccc1)c1cc(Cl)nc(Oc2ccc(OC(F)(F)F)cc2)c1 [Compound 175, (2-chloro-6-(4-(trifluoromethoxy)phenoxy)isonicotinoyl)(pyridin-1-ium-1-yl)amide] | 100% mortality of Mythimna separata or 10% or less of the feed intake | ≥ 80 | ≥ 80 | ≥ 80 | ≥ 80 | ≥ 80
